The text below walks through data of patent US12215129B2, “Antibacterial cyclopeptides targeting acinetobacter and other gram-negative pathogens” (priority 2020, dated 2025).

Data set [1] deals with Klebsiella pneumoniae (ATCC BAA-1705). It is filed as cell-based.
Data set [2] relates to Acinetobacter baumannii (ATCC 19606).
The subject of data set [3] is Staphylococcus aureus.
Data set [4] concerns mouse red blood cell.
Data set [5] relates to Escherichia coli. The format is cell-based.
Data set [6] deals with A. baylyi. It is filed as cell-based, Acinetobacter baylyi.
Data set [7] relates to Enterococcus faecalis (ATCC 29212).
Data set [8] concerns HEK-293 cells.

Molecules are shown by their SMILES. In brackets after ≈: the same amount, converted by molar mass. Starred links: 1 amine or outer side, 2 acyl side, 3 side chain; linkers in the order of their positions; H or OH if unused. Positions of bridges follow the written chain, without caps; N, C: chain ends. Non-standard residues stand in square brackets, D forms with d. Residues, ends and D or L forms follow the SMILES beside them. *: point of attachment. dAsp(3R-OH) = N[C@@H](C(=O)O)[C@@H](O)C(=O)O; Palmitoleoyl = CCCCCC/C=C\CCCCCCCC(=O)*; X1 = NC[C@H](O)[C@@H](N[*:1])C(=O)[*:2]; X2 = CCC(C)(O)[C@H](N[*:1])C(=O)[*:2]; d(aIle) = CC[C@H](C)[C@@H](N)C(=O)O; dOrn = NCCC[C@@H](N)C(=O)O; hSer = N[C@@H](CCO)C(=O)O

As a reminder, the MIC90 is an inhibitory concentration at the 90% level, which refers to growth in some studies and to a panel of isolates in others. A lower MIC90 goes with higher susceptibility. A word on the MIC: it is the lowest concentration that inhibits growth of the organism. Low values mean greater potency, high ones weaker potency.

For the compound `CCCCCC/C=C\CCCCCCCC(=O)N[C@H](CCCN)C(=O)N[C@@H](CO)C(=O)N[C@H](C(=O)N[C@@H](C(=O)N[C@@H](C(=O)N[C@@H]1C(=O)NCC(=O)N[C@@H](C(C)(O)CC)C(=O)N[C@H]([C@@H](C)CC)C(=O)N[C@@H](CCO)C(=O)N[C@@H](C)C(=O)N[C@H]([C@@H](C)CC)C(=O)N[C@@H](CCC(=O)O)C(=O)O[C@@H]1C)[C@@H](O)CN)[C@@H](O)C(=O)O)C(C)C` (stereo partly drawn) [Compound 2, Turnercyclamycin B] (Palmitoleoyl-[dOrn]SV[dAsp(3R-OH)][X1]TG[X2][d(aIle)][hSer]A[d(aIle)]E; ester 6-C), the MIC90 in data set [1] is 2 µg/mL (≈ 1.25 µM); in data set [2], 8 µg/mL (≈ 5 µM); in data set [3], more than 64 µg/mL; in data set [5], 1 µg/mL (≈ 0.625 µM); in data set [7] it was more than 64 µg/mL. Further, in data set [2] (ATCC 19606), the MIC came out at 8 µg/mL (≈ 5 µM). Besides, the “decrease of Staphylococcus aureus growth” value in data set [3] came to 50%. Further, the “hemolytic activity, no activity up to” value in data set [4] is more than 64 µg/mL. Further, the “sensitivity of Δ1ptE A. baylyi strain” value in data set [6] (at 8 μg/mL) is reported as “still sensitive”. For the same compound, in data set [6] (nonpathogenic relative A. baylyi), the “MIC against A. baylyi compared with A. baumannii” value is reported as “same MIC”. Moreover, in data set [6] (plating of inhibited wells from A. baylyi broth cultures), the “nature of growth inhibition” value is listed as “bactericidal, not bacteriostatic”. In addition, in data set [8], the “IC50 against HEK-293” value is on record as “failed to calculate an IC50 value”.
